Counter-ions that a name gives are not always drawn.

The subject of the experiment is C57BL/6 mice. The experiment is described as follows: animal or person. It is filed as in vivo. The note with it: Mus musculus, sc, 0.5 h, s.c. administration, 30 min, 55° C. water, read-out: ED50 (mg/kg) at 30 min on C57BL/6 mice in Warm-water Tail-flick Test. A general note: Hot-plate and tail-flick tests time the reaction to a heat stimulus.
For `c1ccc(CCC2(C3CCCO3)CCN(CC3CCCO3)C2)cc1` (stereo not shown) [Compound 229, 3-phenethyl-3-(tetrahydrofuran-2-yl)-1-((tetrahydrofuran-2-yl)methyl)pyrrolidine], the ED50 was greater than 10 mg/kg. Consider `c1ccc(CCC2(C3CCCO3)CCN(CC3CCOC3)C2)cc1` (stereo not shown) [Compound 230, 3-phenethyl-3-(tetrahydrofuran-2-yl)-1-((tetrahydrofuran-3-yl)methyl)pyrrolidine], for which the ED50 was greater than 10 mg/kg. As for `Cc1ncc(CN2CCC(CCc3ccccc3)(C3CCCO3)C2)s1` (stereo not shown) [Compound 231, 2-methyl-5-((3-phenethyl-3-(tetrahydrofuran-2-yl)pyrrolidin-1-yl)methyl)thiazole], the ED50 was less than 10 mg/kg. For the molecule `CCOCC1(CCc2ccsc2)CCN(Cc2cnn(C)c2)CC1` [Compound 232, 4-(ethoxymethyl)-1-((1-methyl-1H-pyrazol-4-yl)methyl)-4-(2-(thiophen-3-yl)ethyl)piperidine], the ED50 is less than 10 mg/kg. Take `CCOCC1(CCc2cccs2)CCN(Cc2cnn(C)c2)CC1` [Compound 233, 4-(ethoxymethyl)-1-((1-methyl-1H-pyrazol-4-yl)methyl)-4-(2-(thiophen-2-yl)ethyl)piperidine]: the ED50 is less than 10 mg/kg. For `CCOC[C@]1(CCc2ccccc2)CCN(Cc2cnn(C)c2)C1` [Compound 234, (R)-4-((3-(ethoxymethyl)-3-phenethylpyrrolidin-1-yl)methyl)-1-methyl-1H-pyrazole] the value was greater than 10 mg/kg; for `CCOC[C@@]1(CCc2ccccc2)CCN(Cc2cnn(C)c2)C1` [Compound 235, (S)-4-((3-(ethoxymethyl)-3-phenethylpyrrolidin-1-yl)methyl)-1-methyl-1H-pyrazole], less than 10 mg/kg; for `c1ccc(CCC2(C3CCCO3)CCN(Cc3ccncc3)C2)cc1` (stereo not shown) [Compound 236, 4-((3-phenethyl-3-(tetrahydrofuran-2-yl)pyrrolidin-1-yl)methyl)pyridine], greater than 10 mg/kg.

In the case of `c1ccc(CCC2(C3CCCO3)CCN(Cc3cncnc3)C2)cc1` (stereo not shown) [Compound 237, 5-((3-phenethyl-3-(tetrahydrofuran-2-yl)pyrrolidin-1-yl)methyl)pyrimidine], the ED50 was greater than 10 mg/kg. With `c1ccc(CCC2(C3CCCO3)CCN(Cc3cnccn3)C2)cc1` (stereo not shown) [Compound 238, 2-((3-phenethyl-3-(tetrahydrofuran-2-yl)pyrrolidin-1-yl)methyl)pyrazine], the ED50 was greater than 10 mg/kg. The value for `CC(=O)Nc1ccc(CN2CCC(CCc3ccccc3)(COCc3ccccc3)C2)cc1` (stereo not shown) [Compound 239, N-(4-((3-(benzyloxymethyl)-3-phenethylpyrrolidin-1-yl)methyl)phenyl)acetamide] was greater than 10 mg/kg; that for `Cn1cc(CN2CCC(CCc3ccccc3)(COCc3ccccc3)C2)cn1` (stereo not shown) [Compound 240, 4-((3-(benzyloxymethyl)-3-phenethylpyrrolidin-1-yl)methyl)-1-methyl-1H-pyrazole] was greater than 10 mg/kg; that for `Fc1cncc(CN2CCC(CCc3ccccc3)(C3CCCO3)C2)c1` (stereo not shown) [Compound 241, 3-fluoro-5-((3-phenethyl-3-(tetrahydrofuran-2-yl)pyrrolidin-1-yl)methyl)pyridine] was greater than 10 mg/kg. On to `COc1cncc(CN2CCC(CCc3ccccc3)(C3CCCO3)C2)c1` (stereo not shown) [Compound 242, 3-methoxy-5-((3-phenethyl-3-(tetrahydrofuran-2-yl)pyrrolidin-1-yl)methyl)pyridine], for which the ED50 is greater than 10 mg/kg. Consider `Clc1cncc(CN2CCC(CCc3ccccc3)(C3CCCO3)C2)c1` (stereo not shown) [Compound 243, 3-chloro-5-((3-phenethyl-3-(tetrahydrofuran-2-yl)pyrrolidin-1-yl)methyl)pyridine], for which the ED50 was greater than 10 mg/kg. Regarding `CCOCC1(CCc2ccccc2)CCN(Cc2cccnc2)CC1` [Compound 244, 3-((4-(ethoxymethyl)-4-phenethylpiperidin-1-yl)methyl)pyridine], the ED50 was less than 10 mg/kg. `CCOCC1(CCc2ccccc2)CCN(Cc2cnn(C)c2)CC1` [Compound 245, 4-(ethoxymethyl)-1-((1-methyl-1H-pyrazol-4-yl)methyl)-4-phenethylpiperidine]: the ED50 is less than 10 mg/kg.

For `CCOCC1(CCc2ccccc2)CCN(Cc2ccnn2C)CC1` [Compound 246, 4-(ethoxymethyl)-1-((1-methyl-1H-pyrazol-5-yl)methyl)-4-phenethylpiperidine], the ED50 was greater than 10 mg/kg.

Consider `CCOCC1(CCc2cccs2)CCN(Cc2cccnc2)CC1` [Compound 247, 3-((4-(ethoxymethyl)-4-(2-(thiophen-2-yl)ethyl)piperidin-1-yl)methyl)pyridine], for which the ED50 was less than 10 mg/kg.

For the molecule `c1ccc(CCC2(C3CCCO3)CCN(CCc3cccnc3)C2)cc1` (stereo not shown) [Compound 248, 3-(2-(3-phenethyl-3-(tetrahydrofuran-2-yl)pyrrolidin-1-yl)ethyl)pyridine], the ED50 was greater than 10 mg/kg. With `CCOCC1(CCc2ccccc2)CCN(Cc2cccnc2)C1` (stereo not shown) [Compound 249, 3-((3-(ethoxymethyl)-3-phenethylpyrrolidin-1-yl)methyl)pyridine], the ED50 was less than 10 mg/kg. For `CCOCC1(CCc2ccsc2)CCN(Cc2cnn(C)c2)C1` (stereo not drawn) [Compound 250, 4-((3-(ethoxymethyl)-3-(2-(thiophen-3-yl)ethyl)pyrrolidin-l-yl)methyl)-1-methyl-1H-pyrazole] the value was less than 10 mg/kg. Take `CCOCC1(CCc2cccs2)CCN(Cc2cccnc2)C1` (stereo not shown) [Compound 251, 3-((3-(ethoxymethyl)-3-(2-(thiophen-2-yl)ethyl)pyrrolidin-1-yl)methyl)pyridine]: the ED50 was less than 10 mg/kg. In the case of `CCOCC1(CCc2ccsc2)CCN(Cc2cccnc2)C1` (stereo not shown) [Compound 252], the ED50 is less than 10 mg/kg. In the case of `CCOCC1(CCc2ccsc2)CCN(Cc2cnc(C)s2)C1` (stereo not drawn) [Compound 253, 5-((3-(ethoxymethyl)-3-(2-(thiophen-3-yl)ethyl)pyrrolidin-l-yl)methyl)-2-methylthiazole], the ED50 is greater than 10 mg/kg.

For the molecule `CCOCC1(CCc2cccs2)CCN(Cc2cnc(C)s2)CC1` [Compound 254], the ED50 was greater than 10 mg/kg. Turning to `CCOCC1(CCc2ccsc2)CCN(Cc2cnc(C)s2)CC1` [Compound 255, 5-((4-(ethoxymethyl)-4-(2-(thiophen-3-yl)ethyl)piperidin-1-yl)methyl)-2-methylthiazole], the ED50 was greater than 10 mg/kg. For `CCOCC1(CCc2cccs2)CCN(Cc2cnn(CC)c2)CC1` [Compound 256, 4-(ethoxymethyl)-1-((l-ethyl-1H-pyrazol-4-yl)methyl)-4-(2-(thiophen-2-yl)ethyl)piperidine], the ED50 is less than 10 mg/kg. Consider `Cc1cncc(CN2CCC(CCc3ccccc3)(C3CCCO3)C2)c1` (stereo not shown) [Compound 257, 3-methyl-5-((3-phenethyl-3-(tetrahydrofuran-2-yl)pyrrolidin-1-yl)methyl)pyridine], for which the ED50 was less than 10 mg/kg. As for `Cc1ccncc1CN1CCC(CCc2ccccc2)(C2CCCO2)C1` (stereo not shown) [Compound 262, 4-methyl-3-((3-phenethyl-3-(tetrahydrofuran-2-yl)pyrrolidin-1-yl)methyl)pyridine], the ED50 is greater than 10 mg/kg. As to `Cc1ncccc1CN1CCC(CCc2ccccc2)(C2CCCO2)C1` (stereo not shown) [Compound 263, 2-methyl-3-((3-phenethyl-3-(tetrahydrofuran-2-yl)pyrrolidin-1-yl)methyl)pyridine], the ED50 is less than 10 mg/kg.

In the case of `Cc1ccc(CN2CCC(CCc3ccccc3)(C3CCCO3)C2)cn1` (stereo not shown) [Compound 264, 2-methyl-5-((3-phenethyl-3-(tetrahydrofuran-2-yl)pyrrolidin-1-yl)methyl)pyridine], the ED50 was less than 10 mg/kg. On to `c1ccc(CCC2(C3CCCO3)CCN(Cc3cnn(-c4cccnc4)c3)C2)cc1` (stereo not shown) [Compound 265, 3-(4-((3-phenethyl-3-(tetrahydrofuran-2-yl)pyrrolidin-1-yl)methyl)-1H-pyrazol-1-yl)pyridine], for which the ED50 is greater than 10 mg/kg. With `CCOCC1(CCc2ccc(C)s2)CCN(Cc2cnn(C)c2)CC1` [Compound 266, 4-(ethoxymethyl)-1-((1-methyl-1H-pyrazol-4-yl)methyl)-4-(2-(5-methylthiophen-2-yl)ethyl)piperidine], the ED50 is greater than 10 mg/kg. On to `CCOCC1(CCc2cc(C)cs2)CCN(Cc2cnn(C)c2)CC1` [Compound 267, 4-(ethoxymethyl)-1-((1-methyl-1H-pyrazol-4-yl)methyl)-4-(2-(4-methylthiophen-2-yl)ethyl)piperidine], for which the ED50 is less than 10 mg/kg. As for `CCOCC1(CCc2sccc2C)CCN(Cc2cnn(C)c2)CC1` [Compound 268, 4-(ethoxymethyl)-1-((1-methyl-1H-pyrazol-4-yl)methyl)-4-(2-(3-methylthiophen-2-yl)ethyl)piperidine], the ED50 is less than 10 mg/kg. Consider `CCOC[C@@]1(CCc2ccccc2)CCN(Cc2cccnc2)C1` [Compound 269], for which the ED50 is less than 10 mg/kg. For the molecule `CCOCC1(CCc2cccs2)CCN(Cc2cnn(C(C)C)c2)CC1` [Compound 270, 4-(ethoxymethyl)-1-((1-isopropyl-1H-pyrazol-4-yl)methyl)-4-(2-(thiophen-2-yl)ethyl)piperidine HCl], the ED50 was greater than 10 mg/kg. For `CCOCC1(CCc2cccs2)CCN(Cc2cnn(Cc3ccccc3)c2)CC1` [Compound 271, 1-((1-benzyl-1H-pyrazol-4-yl)methyl)-4-(ethoxymethyl)-4-(2-(thiophen-2-yl)ethyl)piperidine], the ED50 is greater than 10 mg/kg.

`C1=CC(C2(CCc3ccsc3)CCN(Cc3cccnc3)C2)OC1` (stereo not shown) [Compound 272, 3-((3-(2,5-dihydrofuran-2-yl)-3-(2-(thiophen-yl)ethyl)pyrrolidin-1-yl)methyl)pyridine]: the ED50 was less than 10 mg/kg. Turning to `Cc1ccc(CN2CCC(CCc3ccccc3)(C3CCCO3)C2)c(C)n1` (stereo not shown) [Compound 273, 2,6-dimethyl-3-((3-phenethyl-3-(tetrahydrofuran-2-yl)pyrrolidin-1-yl)methyl)pyridine], the ED50 was less than 10 mg/kg. The value for `COc1ccc(CN2CCC(CCc3ccccc3)(C3CCCO3)C2)cn1` (stereo not shown) [Compound 274, 2-methoxy-5-((3-phenethyl-3-(tetrahydrofuran-2-yl)pyrrolidin-1-yl)methyl)pyridine] was greater than 10 mg/kg. Consider `CCOC[C@@]1(CCc2cccs2)CCN(Cc2cccnc2)C1` [Compound 275, (S)-3-((3-(ethoxymethyl)-3-(2-(thiophen-2-yl)ethyl)pyrrolidin-1-yl)methyl)pyridine], for which the ED50 is less than 10 mg/kg.

Source of the values: patent publication US11584765B2 (priority 2017, dated 2023).
